The results in this text go back to US20260034252A1, “FIBROBLAST ACTIVATION PROTEIN-TARGETED COMPOSITIONS AND METHODS OF USE THEREOF” (Ratio Therapeutics, Inc., priority 2022, published 2026).

By IC50 is commonly meant the concentration that inhibits the measured activity by half. A high value points to a need for much substance.

Data set [1] concerns the target T1, FAP (Homo sapiens (Human), UniProt Q12884). Briefly: surface plasmon resonance assay. In kind it is binding. Conditions: read-out: affinity. On the technique in general: In SPR one partner is held on a chip, and binding of the other changes the refractive index at the surface.
For data set [2], the target named is T1, FAP. Briefly: FAP protease inhibition assay (FAM-labeled substrate peptide, microfluidic electrophoresis). In kind it is biochemical. Conditions: enzyme 0.5 nM, substrate peptide 1 uM, 15 minutes pre-incubation, three hours for human FAP. The protocol:
Protease reactions were assembled in 384 well plates (Greiner) in a total volume of 20 uL as described below.
Recombinant proteins were pre-diluted in assay buffer comprising of 100 mM HEPES, pH 7.5, 0.1% BSA, 0.01% Triton X-100, 1 mM DTT, and dispensed into 384 well plate (10 uL per well). Test compounds were serially pre-diluted in DMSO and added to the assay wells by acoustic dispensing (Labcyte Echo 550). Control samples (0%-inhibition in the absence of inhibitor, DMSO only) and 100%-inhibition (in the absence of enzyme) were assembled in replicates of four and used to calculate the %-inhibition in the presence of compounds. Concentration of DMSO was equalized to 1% in all samples.
Compounds were pre-incubated with enzymes for 15 minutes. Human FAP was obtained from Enzo, catalogue number BML-SE409-0010. […] Final concentration of enzymes were 0.5 nM. Final concentration of substrate peptides was 1 uM.
The reactions were allowed to proceed at room temperature. Incubation time was three hours for human FAP, 0.5 hours for mouse FAP.
Terminated plates were analyzed using a microfluidic electrophoresis instrument (Caliper LabChip® 3000, Caliper Life Sciences/Perkin Elmer). A change in relative intensity of the peptide substrate and cleaved product was the parameter measured. Activity in each test sample was determined as the product to sum ratio (PSR):P/(S+P), where P is the peak height of the product, and S is the peak height of the substrate. Percent inhibition (Pinh) was determined using the following equation: Pinh=(PSR0% inh−PSRcompound)/(PSR0% inh−PSR100% inh)*100, in which: PSRcompound is the product/sum ratio in the presence of compound, PSR0% inh is the product/sum ratio in the absence of compound and the PSR100% inh is the product/sum ratio in the absence of the enzyme.

Data set [3] concerns U-87 (human glioblastoma) cells. Briefly: Detection of tumors in BALB/c nude mice transplanted with U-87 cells. In kind it is in vivo. Conditions: 1 μg intravenous injection, one hour. As to the method: BALB/c nude mice were transplanted with approximately 10^7 U-87 (human glioblastoma) cells and the tumors allowed to develop. 1 μg of an ^18F-labeled FAP-targeted agent of the invention, RTX-1312S (prepared according to Example 13), was administered to the mice by intravenous injection (e.g., tail vein), which were then sacrificed after one hour. FIG. 1a illustrates tumor binding of the ^18F-labeled FAP-targeted compound in mice.

T1 sequence (Q12884 whole entry): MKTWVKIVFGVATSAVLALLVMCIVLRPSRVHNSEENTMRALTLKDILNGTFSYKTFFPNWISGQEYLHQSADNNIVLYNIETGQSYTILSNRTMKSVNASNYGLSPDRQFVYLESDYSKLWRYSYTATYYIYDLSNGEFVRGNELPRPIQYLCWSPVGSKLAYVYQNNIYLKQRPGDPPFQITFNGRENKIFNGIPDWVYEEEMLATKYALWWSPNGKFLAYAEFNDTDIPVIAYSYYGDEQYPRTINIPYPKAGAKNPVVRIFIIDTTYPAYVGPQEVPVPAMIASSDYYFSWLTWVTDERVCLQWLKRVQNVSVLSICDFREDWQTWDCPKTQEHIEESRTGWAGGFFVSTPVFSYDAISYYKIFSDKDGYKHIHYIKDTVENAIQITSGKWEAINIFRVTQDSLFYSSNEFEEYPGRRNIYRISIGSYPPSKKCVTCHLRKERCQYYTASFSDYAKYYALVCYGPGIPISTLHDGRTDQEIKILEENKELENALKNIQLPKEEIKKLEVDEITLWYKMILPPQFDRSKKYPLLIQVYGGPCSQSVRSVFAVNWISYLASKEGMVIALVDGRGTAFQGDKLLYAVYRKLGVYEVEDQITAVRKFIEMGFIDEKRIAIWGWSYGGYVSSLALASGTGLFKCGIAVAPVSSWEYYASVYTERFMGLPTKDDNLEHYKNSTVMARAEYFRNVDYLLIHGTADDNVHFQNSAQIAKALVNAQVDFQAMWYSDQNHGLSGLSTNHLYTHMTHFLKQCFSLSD

As for `CN(CCCN1CCN(C(=O)CN2CCN(CC(=O)O)CCN(CC(=O)O)CCN(CC(=O)O)CC2)CC1)c1ccc2nccc(C(=O)NCC(=O)N3CC(F)(F)C[C@H]3C#N)c2c1` [FAP-46], the Kd at FAP [1] was 0.255 nM. With `CC(=O)NCCCC[C@H](NC(=O)[C@H](CCCCNC(=S)Nc1ccc(CC2CN(CC(=O)O)CCN(CC(=O)O)CCN2CC(=O)O)cc1)NC(=O)CCOCCOCCOCCNC(=O)COc1ccc2c(C(=O)NCC(=O)N3CCC[C@H]3C#N)ccnc2c1)C(=O)O` (stereo partly drawn) [RTX-1312S, (S)-2-[(S)-2-(3-{2-[2-(2-{2-[4-({2-[(S)-2-Cyano-1-pyrrolidinyl]-2-oxoethylamino}carbonyl)-7-quinolyloxy]acetylamino}ethoxy)ethoxy]ethoxy}propionylamino)-6-[3-(p-{[1,4,7-tris(carboxymethyl)-1,4,7-triazonan-2-yl]methyl}phenyl)thioureido]hexanoylamino]-6-acetylaminohexanoic Acid], the half-inhibitory concentration (IC50) against FAP [2] is < 0.1 nM. Also, the “tumor binding of 18F-labeled compound” value in data set [3] is “tumor binding”. With `CC(C)Cc1ccc(CC(=O)NCCCC[C@H](NC(=O)[C@H](CCCCNC(=S)Nc2ccc(CCOc3cc(CN4CCOCCOCCN(Cc5cccc(C(=O)O)n5)CCOCCOCC4)nc(C(=O)O)c3)cc2)NC(=O)CCOCCOCCOCCNC(=O)COc2ccc3c(C(=O)NCC(=O)N4CCC[C@H]4B(O)O)ccnc3c2)C(=O)O)cc1` [RTX-1399R, 4-(4-(3-((S)-1-((4-((2-((R)-2-boronopyrrolidin-1-yl)-2-oxoethyl)carbamoyl)quinolin-7-yl)oxy)-17-(((S)-1-carboxy-5-(2-(4-isobutylphenyl)acetamido)pentyl)carbamoyl)-2,15-dioxo-6,9,12-trioxa-3,16-diazahenicosan-21-yl)thioureido)phenethoxy)-6-((16-((6-carboxypyridin-2-yl)methyl)-1,4,10,13-tetraoxa-7,16-diazacyclooctadecan-7-yl)methyl)picolinic acid], on FAP [2], the IC50 was 0.1 to 0.5 nM.
